Experimental data reported in US5385911A, “Anti-herpes castanospermine esters” (priority 1990, dated 1995).

Experiments:
[1] = tested on: viral protein glycosylation; conditions: cited from earlier work
HSV1 and HSV2 = conditions: cited from earlier work
[2] = at high dosage; cited from earlier work
HIV glycoproteins = conditions: cited from earlier work; for formation of syncytia: HIV
HSV2 strain HG52 = assay: plaque-reduction assay, HSV2 strain HG52 in MRC5 cells; format: cell-based, HSV2 strain HG52; human embryonic fibroblast cells (MRC5); conditions: Human alphaherpesvirus 2, 72 h, 3 days incubation, read-out: ED50 HSVII
Method: (§1) Antiviral activity of the compounds of formula (1) can assessed by the plaque-reduction assay as previously described by Tyms et al., J. Antimicrobial Chemotherapy, 8, 65-72 (1981). Briefly, human embryonic fibroblast cells (MRC5) were cultured in 24-well tissue culture trays in the presence of Eagles' minimum essential medium (MEM) supplemented with 10% fetal calf serum. When cell monolayers were semi-confluent, they were inoculated with 30-50 plaque-forming units of HSV2 strain HG52 or HSV1 strain 17[…]. General Virology, 55, 315-331 (1981). […] After 3 days incubation, cells were fixed in 10% formalin in saline and subsequently stained with 0.3% methylene blue. Dose-responselines were plotted from the mean number of plaques present versus the log of the concentration of the compound. The 50% effective dose (ED50) was computed after linear regression analysis.

HSV = conditions: cited from earlier work
Herpes infections = conditions: in man; cited from earlier work
HSV1 strain 17i = assay: plaque-reduction assay, HSV1 strain 17i in MRC5 cells; format: cell-based, HSV1 strain 17i; human embryonic fibroblast cells (MRC5); conditions: Human alphaherpesvirus 1, 72 h, 3 days incubation, read-out: ED50 HSVI
Method: as §1

For 2-deoxy-2-fluoroglucose, the “inhibition of viral protein glycosylation” value [1] is given as “inhibit viral protein glycosylation by a different mechanism”.

For `Nc1nc2c(ncn2COCCO)c(=O)[nH]1` [Acyclovir], the antiviral effect (HSV1 and HSV2) is given as “potent antiviral effect” and the solubility [2] is given as “Poor solubility at high dosage”.

For `CCC(O)[C@H](N)C(=O)O` (stereo partly drawn) [β-hydroxy-norvaline], the formation of syncytia (HIV glycoproteins) is given as “block the formation of syncytia” and the “expression of HIV glycoproteins” value (HIV glycoproteins) is given as “inhibit expression of HIV glycoproteins”.

In the case of `O=C(O[C@H]1CN2CC[C@H](O)[C@@H]2[C@@H](O)[C@@H]1O)c1ccccc1` [MDL 43,305, [1S-(1α,6β,7α,8β,8aβ)]-octahydro-1,6,7,8-indolizinetetrol 6-benzoate], the EC50 (HSV2 strain HG52) is reported as ≤ 20 µg/mL.

In the case of `Cc1ccc(C(=O)O[C@H]2CN3CC[C@H](O)[C@@H]3[C@@H](O)[C@@H]2O)cc1` [MDL 29,204], the EC50 (HSV2 strain HG52) is reported as ≤ 20 µg/mL.

In the case of `O=CC[C@@H](O)[C@H](O)[C@H](O)CO` [2-deoxyglucose], the “inhibition of viral protein glycosylation” value [1] is given as “inhibit viral protein glycosylation by a different mechanism”.

For `O=CC[C@@H](O)[C@H](O)[C@H](O)CO` [2-deoxy-D-glucose], the formation of syncytia (HIV glycoproteins) is given as “block the formation of syncytia”, the “expression of HIV glycoproteins” value (HIV glycoproteins) is given as “inhibit expression of HIV glycoproteins” and the “activity against HSV” value (HSV) is given as “active against HSV”. The “efficacy in the treatment of Herpes infections” value (Herpes infections) was “has shown efficacy in the treatment of Herpes infections in man”.

With `CCCC(=O)O[C@H]1CN2CC[C@H](O)[C@@H]2[C@@H](O)[C@@H]1O` [MDL 28,574, [1S-(1α,6β,7α,8β,8aβ)]-octahydro-1,6,7,8-indolizinetetrol 6-butanoate] the EC50 (HSV1 strain 17i) was ≤ 75 µg/mL and the EC50 (HSV2 strain HG52) was ≤ 22 µg/mL.

In the case of `CCCCCCCC(=O)O[C@H]1CN2CC[C@H](O)[C@@H]2[C@@H](O)[C@@H]1O` [MDL 29,797, [1S-(1α,6β,7α,8β,8aβ)]-octahydro-1,6,7,8-indolizinetetrol 6-octanoate], the EC50 (HSV1 strain 17i) is reported as ≤ 10 µg/mL and the EC50 (HSV2 strain HG52) is reported as ≤ 5 µg/mL.

For `CCC=CCC(=O)O[C@H]1CN2CC[C@H](O)[C@@H]2[C@@H](O)[C@@H]1O` [MDL 29,513, [1S-(1α,6β,7α,8β,8aβ)]-octahydro-1,6,7,8-indolizinetetrol 6-(3-hexenoate)], the EC50 (HSV1 strain 17i) was ≤ 5 µg/mL and the EC50 (HSV2 strain HG52) was ≤ 5 µg/mL.
